Experimental data reported in patent US20250340946A1, “METHOD OF PROGNOSING AND TREATING GLIOMA” (Agency for Science, Technology and Research, priority 2022, published 2025).

Key:
GBM cells = test: Cell viability, RNA helicase inhibitors alone or with TMZ (FIG. 9); assay type: cell-based; settings: for synergy on cell viability: combination therapy with TMZ; for cell viability: single agent
[1] = tested on: LOC expression in mIDH1 (IDH1 R132H/WT) LN18 cells; test: qPCR of LOC expression in mIDH1 cells; assay type: cell-based, human
From the text: FIG. 6: LOC: DHX15 serves as a targetable vulnerability in wtIDH1 high-grade glioma. A) LOC expression in different IDH mutation status across different WHO grade gliomas based on RNA-seq data from CGGA. B) qPCR of LOC expression in wtIDH1 LN18 cells or mIDH1 clones. Those clones were generated by base editing. C) qPCR of LOC expression in wtIDH1 and mIDH1 LN18 cells treated with or without mIDH1 inhibitor AGI-5198. D) qPCR of LOC expression in wtIDH1 and mIDH1 LN18 cells with or without DMNT inhibitor 5-Azac treatment. E) Protein lysates from wtIDH1 and mIDH1 LN18 cells were analyzed for levels of phosphorylated and total p65 and p38 proteins by western blot. F) wtIDH1 and mIDH1 LN18 cells were transfected with empty vector (EV) or expression vectors of LOC or mutant version of LOC (LOC-M2). After 48 hours cells were harvested and endogenous DHX15 or p65 was immunoprecipitated with antibody against DHX15 or p65. IP samples were analyzed by subsequent immunoblot for the indicated proteins at indicated time points. G-H) Cell viability assay of wtIDH1 G) and mIDH1 LN18 cells H) treated with or without DHX inhibitor. I) Fluorescence imaging of wtIDH1 and mIDH1 GBM orthotopic xenograft models with or without DHX inhibitor treatment. J) Quantification of tumor signal intensity obtained from I). […]

Row | Compound | synergy on cell viability (GBM cells) | cell viability (GBM cells) | LOC expression ([1]; IDH1 R132H/WT cells, mIDH1 inhibitor treatment, FIG. 6C) | IDH1 mutation induced hypermethylation phenotype (diminished LOC expression) ([1]; DNA methyltransferase inhibitor treatment, FIG. 6D)
1 | RK-33 | does not show synergistic inhibition of cell viability | inhibition of cell viability | – | –
2 | Cc1ccccc1C(C(=O)NC1CCCCC1)N(C(=O)Cn1ccnc1C)c1cccc(F)c1 (stereo not drawn) [selective mutant IDH1^R132H inhibitor] | – | – | restored the LOC expression | –
3 | Nc1ncn([C@@H]2O[C@H](CO)[C@@H](O)[C@H]2O)c(=O)n1 [5-AzaC, 5-Azacytidine] | – | – | – | abrogate this hypermethylation phenotype
4 | COc1ccc([C@@]23Oc4cc(OC)cc(OC)c4[C@]2(O)[C@H](O)[C@H](C(=O)N(C)C)[C@H]3c2ccccc2)cc1 [Rocaglamide] | does not show synergistic inhibition of cell viability | inhibition of cell viability | – | –
